In patent US20180116976A1, “METHODS AND COMPOSITIONS FOR UNWANTED OR ABNORMAL MUSCLE CONTRACTIONS” (Flex Pharma, Inc., priority 2015, published 2018):

Columns and labels:
[1] = test system: human dorsal root ganglion neurons; assay: Calcium flux (ΔF/F) in human dorsal root ganglion neurons ex vivo, TRPV1/TRPA1 activation; assay type: cell-based; settings: calcium-sensitive dye, FIG. 1
Method: Selective TRPV1 and TRPA1 activation responses were measured for exemplary compositions of the invention in human dorsal root ganglion neurons ex vivo and compared with TRPV1/TRPA1 co-activation responses. The degree of neuron activation was assessed by inward calcium flux using neurons preloaded with a calcium-sensitive fluorescent dye. Intracellular cellular calcium levels were then monitored by wide-field fluorescent microscopy. The change in intracellular fluorescence relative to baseline fluorescence (ΔF/F) was quantified, and the results are shown in FIG. 1.

[2] = test system: flexor hallucis brevis muscle; assay: Electrically induced flexor hallucis brevis cramp, surface EMG AUC over 140 seconds, additional beverage study (Example 3); assay type: in vivo, human; settings: 29 mg, 140 second observation period; FIG. 10
Method: An additional study was carried out comparing exemplary compounds and combinations thereof as summarized in Table 3 below, each administered as a beverage formulation.
Cramp intensity was assessed by integrating the area under the curve (AUC) of a surface EMG signal over a 140 second observation period post electrical induction of a cramp in the flexor hallucis brevis muscle as previously described. […] The overall change between the pre-treatment baseline and mean vehicle control response was minimal.

[3] = test system: flexor hallucis brevis muscle; assay: Externally-induced cramping of the flexor hallucis brevis muscle, 6-shogaol orally disintegrating tablet (Example 4); assay type: in vivo, human; settings: ODT
Method: The goal of this study was to assess the effectiveness of 6-shogaol formulated as an orally disintegrating tablet (ODT) in the prevention of externally-induced cramping of the flexor hallucis brevis muscle of the foot. The study was carried in two parts. The first part was an open label, placebo-controlled, 5-visit study evaluating vehicle (lactose and sucrose), 0.5 mg, 2.5 mg, 10/6.9 mg, and 40/33 mg 6-shogaol. The second part was a randomized, single-blind, placebo-controlled, 4-visit study evaluating vehicle (lactose and sucrose), 0.5 mg, 20/18.5 mg, and 60/55.5 mg 6-shogaol. Screening of subjects occurred within 28 days in a similar manner as described above in Example 1. Note that dosage values separated by a “/” indicate the nominal versus the actual doses as determined by Chromadex.
The collected EMG data was analyzed for the baseline adjusted integrated EMG (IEMG) level, also referred to as area under the curve (AUC), and cramp duration, as described in Example 1. FIG. 11 and FIG. 12 summarize the average change and ratio in AUC values for all subjects compared by administered treatment both parts of the study. […] The data in FIG. 15 and FIG. 16 further support these findings.

Row | SMILES | neuron activation response, change in intracellular fluorescence relative to baseline (ΔF/F) [1] | decrease in cramp intensity compared to other treatments tested [2] | reduction in AUC compared to its study specific vehicle control [2] [fold] | cramp inhibition ([3]; 0.5 mg dosage level) | cramp inhibition ([3]; 2.6 mg dosage level) | cramp inhibition ([3]; 6.9 mg) | time over which cramp inhibition was sustained ([3]; 33 mg and 55 mg dosage levels) [h] | cramp inhibition ([3]; 33 mg dosage level) [%] | cramp inhibition ([3]; 55 mg dosage level) [%]
1 | CCCCCC(O)CC(=O)CCc1ccc(O)c(OC)c1 (stereo not shown) [Treatment 6-gingerol, 6-gingerol] | synergistic response | – | – | – | – | – | – | – | –
2 | CCCCC/C=C/C(=O)CCc1ccc(O)c(OC)c1 [Treatment 6-shogaol, 6-shogaol] | synergistic response | greater decrease | 5 | no efficacy | no efficacy | roughly 40% | ≥ 8 | 75 | 75
